Measured values published in the NIST ThermoML archive (doi:10.1016/j.jct.2007.05.011).

Assay: xn = mol fraction of the nth substance listed
Details: 101 kPa, Liquid; for mass density: Vibrating tube method

NCCO.O=CO [2-hydroxyethylammonium formate] + O
Details | mass density [kg/m3] | speed of sound [m/s]
305.65 K, x2 = 0 | – | 1690.8
305.65 K, x2 = 0.047 | – | 1723.5
305.65 K, x2 = 0.108 | – | 1725.2
305.65 K, x2 = 0.199 | – | 1726.8
305.65 K, x2 = 0.311 | – | 1728.3
305.65 K, x2 = 0.4 | – | 1728
305.65 K, x2 = 0.492 | – | 1727.3
305.65 K, x2 = 0.601 | – | 1723.5
305.65 K, x2 = 0.699 | – | 1717.4
305.65 K, x2 = 0.8 | – | 1697.5
305.65 K, x2 = 0.9 | – | 1649
305.65 K, x2 = 0.95 | – | 1598.9
308.15 K, x2 = 0 | 1169.39 | 1684.8
308.15 K, x2 = 0.047 | 1169.74 | 1718.4
308.15 K, x2 = 0.108 | 1168.41 | 1720.2
308.15 K, x2 = 0.199 | 1165.49 | 1721.9
308.15 K, x2 = 0.311 | 1160.67 | 1723.6
308.15 K, x2 = 0.4 | 1155.85 | 1723.5
308.15 K, x2 = 0.492 | 1149.4 | 1723
308.15 K, x2 = 0.601 | 1138.94 | 1719.6
308.15 K, x2 = 0.699 | 1125.12 | 1714.1
308.15 K, x2 = 0.8 | 1103.38 | 1695.2
308.15 K, x2 = 0.9 | 1066.39 | 1648.9
308.15 K, x2 = 0.95 | 1036.99 | 1600.8
310.65 K, x2 = 0 | 1167.62 | 1678.7
310.65 K, x2 = 0.047 | 1168.1 | 1713.4
310.65 K, x2 = 0.108 | 1166.77 | 1715.2
310.65 K, x2 = 0.199 | 1163.86 | 1717.1
310.65 K, x2 = 0.311 | 1159.05 | 1718.9
310.65 K, x2 = 0.4 | 1154.22 | 1718.9
310.65 K, x2 = 0.492 | 1147.79 | 1718.7
310.65 K, x2 = 0.601 | 1137.34 | 1715.6
310.65 K, x2 = 0.699 | 1123.56 | 1710.7
310.65 K, x2 = 0.8 | 1101.88 | 1692.8
310.65 K, x2 = 0.9 | 1065.06 | 1648.6
310.65 K, x2 = 0.95 | 1035.83 | 1602.4
313.15 K, x2 = 0 | 1165.84 | 1672.7
313.15 K, x2 = 0.047 | 1166.46 | 1708.3
313.15 K, x2 = 0.108 | 1165.14 | 1710.2
313.15 K, x2 = 0.199 | 1162.22 | 1712.1
313.15 K, x2 = 0.311 | 1157.42 | 1714.1
313.15 K, x2 = 0.4 | 1152.6 | 1714.4
313.15 K, x2 = 0.492 | 1146.17 | 1714.3
313.15 K, x2 = 0.601 | 1135.74 | 1711.7
313.15 K, x2 = 0.699 | 1121.98 | 1707.2
313.15 K, x2 = 0.8 | 1100.38 | 1690.4
313.15 K, x2 = 0.9 | 1063.71 | 1648.2
313.15 K, x2 = 0.95 | 1034.64 | 1603.8
315.65 K, x2 = 0 | 1164.06 | 1666.7
315.65 K, x2 = 0.047 | 1164.82 | 1703.3
315.65 K, x2 = 0.108 | 1163.51 | 1705.2
315.65 K, x2 = 0.199 | 1160.59 | 1707.2
315.65 K, x2 = 0.311 | 1155.79 | 1709.4
315.65 K, x2 = 0.4 | 1150.97 | 1709.8
315.65 K, x2 = 0.492 | 1144.56 | 1710
315.65 K, x2 = 0.601 | 1134.13 | 1707.6
315.65 K, x2 = 0.699 | 1120.4 | 1703.7
315.65 K, x2 = 0.8 | 1098.86 | 1687.8
315.65 K, x2 = 0.9 | 1062.35 | 1647.5
315.65 K, x2 = 0.95 | 1033.42 | 1604.9
318.15 K, x2 = 0 | 1162.29 | 1660.8
318.15 K, x2 = 0.047 | 1163.18 | 1698.3
318.15 K, x2 = 0.108 | 1161.88 | 1700.2
318.15 K, x2 = 0.199 | 1158.96 | 1702.4
318.15 K, x2 = 0.311 | 1154.16 | 1704.7
318.15 K, x2 = 0.4 | 1149.34 | 1705.2
318.15 K, x2 = 0.492 | 1142.94 | 1705.6
318.15 K, x2 = 0.601 | 1132.52 | 1703.6
318.15 K, x2 = 0.699 | 1118.82 | 1700.2
318.15 K, x2 = 0.8 | 1097.33 | 1685.1
318.15 K, x2 = 0.9 | 1060.95 | 1646.7
318.15 K, x2 = 0.95 | 1032.17 | 1605.8
320.65 K, x2 = 0 | 1160.51 | 1654.8
320.65 K, x2 = 0.047 | 1161.55 | 1693.3
320.65 K, x2 = 0.108 | 1160.25 | 1695.3
320.65 K, x2 = 0.199 | 1157.34 | 1697.5
320.65 K, x2 = 0.311 | 1152.53 | 1699.9
320.65 K, x2 = 0.4 | 1147.7 | 1700.6
320.65 K, x2 = 0.492 | 1141.31 | 1701.2
320.65 K, x2 = 0.601 | 1130.9 | 1699.5
320.65 K, x2 = 0.699 | 1117.22 | 1696.5
320.65 K, x2 = 0.8 | 1095.78 | 1682.4
320.65 K, x2 = 0.9 | 1059.54 | 1645.7
320.65 K, x2 = 0.95 | 1030.89 | 1606.4
323.15 K, x2 = 0 | 1158.73 | 1648.9
323.15 K, x2 = 0.047 | 1159.94 | 1688.4
323.15 K, x2 = 0.108 | 1158.62 | 1690.5
323.15 K, x2 = 0.199 | 1155.72 | 1692.7
323.15 K, x2 = 0.311 | 1150.91 | 1695.2
323.15 K, x2 = 0.4 | 1146.05 | 1696
323.15 K, x2 = 0.492 | 1139.69 | 1696.8
323.15 K, x2 = 0.601 | 1129.29 | 1695.4
323.15 K, x2 = 0.699 | 1115.62 | 1692.8
323.15 K, x2 = 0.8 | 1094.23 | 1679.5
323.15 K, x2 = 0.9 | 1058.12 | 1644.6
323.15 K, x2 = 0.95 | 1029.58 | 1606.8
